Measured values reported in article PMC6286156 (Cell Calcium, 2018).
Where a name gives a salt, the structure may show the parent alone.

How the values were obtained:
[1] = tested on: NAADP-evoked Ca^2+ release; format: biochemical, Strongylocentrotus purpuratus; details: for IC50: read-out: IC50 for inhibition of NAADP-evoked Ca2+ release; for 2° Screen (sea urchin) Ca^2+ release log(IC50): printed as log(IC50), negative values, molar implied, NAADP 70 nM
[2] = tested on: lysosomal labelling (LysoTracker Red), U2OS cells; experiment: Counterscreen: LysoTracker Red; format: cell-based, human; details: for Counterscreen (human cells) LTR signal (% control): drug 30 μM, minimum LTR F/F0 before GPN; for activity at 30 µM: Homo sapiens, read-out: Counterscreen (human cells) LTR signal (% control)
[3] = tested on: NAADP-evoked Ca^2+ release; experiment: Primary screen of NAADP-evoked Ca2+ release in sea urchin egg homogenate; format: biochemical, Strongylocentrotus purpuratus; details: for 1° Screen (sea urchin) Ca^2+ release (% NAADP): peak NAADP-evoked Ca2+ release as % of control NAADP response: compound 25 μM, 6 min preincubation, NAADP 167 nM; for Effect on NAADP-evoked Ca2+ signal in primary screen (in words): 25 μM
[4] = tested on: lysosomal Ca^2+ content, U2OS cells; experiment: Counterscreen: GPN-evoked lysosomal Ca2+ release; format: cell-based, human; details: for Effect on GPN-mobilizable Ca2+ and LysoTracker (LTR) staining (in words) / Counterscreen (human cells) Ca^2+ release (% GPN): drug 30 μM; for Counterscreen (human cells) Ca^2+ release (% GPN): GPN 300 μM, peak fluo-4 F/F0; for activity at 30 µM: Homo sapiens, read-out: Counterscreen (human cells) Ca^2+ release (% GPN)
[5] = tested on: specific ^32P-NAADP binding in sea urchin egg homogenates; experiment: 32P-NAADP radioligand binding in sea urchin egg homogenate; design: species or system Strongylocentrotus purpuratus; details: drug 30 μM, specific 32P-NAADP binding relative to vehicle
IP3-evoked Ca^2+ release = format: biochemical, Strongylocentrotus purpuratus
[6] = tested on: cADPR-evoked Ca^2+ release; format: biochemical, Strongylocentrotus purpuratus
[7] = tested on: NAADP-evoked Ca^2+ signals; details: cited from earlier work
Ebola = details: mouse, in vivo; cited from earlier work

| Compound | 2° Screen (sea urchin) Ca^2+ release log(IC50) [1] | 1° Screen (sea urchin) Ca^2+ release (% NAADP): peak NAADP-evoked Ca2+ release as % of control NAADP response [3] | 2° Screen (sea urchin) NAADP binding (% inhibition) [5] | activity at 30 µM [2] | activity at 30 µM [4] | further results |
| --- | --- | --- | --- | --- | --- | --- |
| COc1ccc([C@H]2N[C@H](C(=O)O)Cc3c2[nH]c2ccccc32)cc1CN1CCN(c2ccccc2F)CC1 (relative stereo) [trans-ned-19, trans-Ned-19] | – | – | – | – | – | IC50 [1]: 156 ± 3 µM |
| CCS(=O)(=O)Nc1cccc(C(=C2CCCCC2)c2cnc[nH]2)c1 [A-315456] | −4.44 ± 0.01 | 13.0 ± 5.0% | 8.4 ± 1.2% | – | – | Counterscreen (human cells) LTR signal (% control) [2]: 95.2 ± 4%; Effect on GPN-mobilizable Ca2+ and LysoTracker (LTR) staining (in words) [4]: no effect; Counterscreen (human cells) Ca^2+ release (% GPN) [4]: 97.1 ± 3% |
| CN1CCC[C@@H]1CCO[C@](C)(c1ccccc1)c1ccc(Cl)cc1 [Clemastine fumarate, clemastine fumarate] | – | – | – | 70.9 ± 15% | 69.5 ± 13% | – |
| COc1cc(C(=O)OCCCN2CCCN(CCCOC(=O)c3cc(OC)c(OC)c(OC)c3)CC2)cc(OC)c1OC [Dilazep hydrochloride, dilazep hydrochloride] | −5.03 ± 0.11 | 16.0 ± 3.0% | −10.9 ± 8.1% | 69.6 ± 9% | 65.1 ± 5% | – |
| COc1ccc2cc1Oc1ccc(cc1)C[C@H]1c3cc(c(OC)cc3CCN1C)Oc1c(O)c(OC)cc3c1[C@H](C2)N(C)CC3 [Fangchinoline] | – | – | – | – | – | Peak amplitude of NAADP-evoked Ca2+ release, % of control response [1]: 47 ± 2%; Effect on size of IP3-evoked Ca2+ transients (in words) (IP3-evoked Ca^2+ release): lesser effects; Effect on size of cADPR-evoked Ca2+ transients (in words) [6]: lesser effects |
| OCCN1CCN(CCCN2c3ccccc3Sc3ccc(C(F)(F)F)cc32)CC1 [Fluphenazine dihydrochloride, fluphenazine dihydrochloride] | – | – | – | 69.8 ± 10% | 67.6 ± 14% | – |
| Cl.Cl.c1ccc(CCCN2CCN(CCOC(c3ccccc3)c3ccccc3)CC2)cc1 [GBR-12935 dihydrochloride] | −4.90 ± 0.13 | 10.7 ± 7.0% | 3.4 ± 3.3% | – | – | Counterscreen (human cells) LTR signal (% control) [2]: 67.5 ± 11%; Counterscreen (human cells) Ca^2+ release (% GPN) [4]: 61.1 ± 15% |
| Cl.Fc1ccc(C(OCCCc2c[nH]cn2)c2ccc(F)cc2)cc1 [IPFME, 3-(1H-Imidazol-4-yl)propyl di(p-fluorophenyl)methyl ether hydrochloride] | −5.22 ± 0.08 | 13.7 ± 11% | 2.9 ± 2.1% | 56.9 ± 8% | 51.3 ± 18% | – |
| CC1(C)C(=O)N(CCN2CCC(C(=O)c3ccc(F)cc3)CC2)c2ccccc21.Cl [LY-310,762 hydrochloride] | −4.75 ± 0.05 | 16.3 ± 8.7% | −2.8 ± 3.8% | – | – | Counterscreen (human cells) LTR signal (% control) [2]: 90.2 ± 8%; Counterscreen (human cells) Ca^2+ release (% GPN) [4]: 108.1 ± 11% |
| CCN(CC)CC#CCOC(=O)C(O)(c1ccccc1)C1CCCCC1 (stereo not drawn) [Oxybutynin Chloride, oxybutynin chloride] | – | – | – | 59.2 ± 9% | 62.1 ± 4% | – |
| CCCCCCCCCC(=O)NC(CN1CCOCC1)C(O)c1ccccc1.Cl (stereo not drawn) [PDMP, PDMP hydrochloride] | −4.80 ± 0.05 | 18.3 ± 17% | 6.0 ± 0.5% | – | – | Counterscreen (human cells) LTR signal (% control) [2]: 91.6 ± 13%; Effect on GPN-mobilizable Ca2+ and LysoTracker (LTR) staining (in words) [4]: no effect; Counterscreen (human cells) Ca^2+ release (% GPN) [4]: 91.4 ± 2% |
| Cc1nc(N=Nc2ccc(S(=O)(=O)[O-])cc2S(=O)(=O)[O-])c(COP(=O)([O-])[O-])c(C=O)c1O.[Na+].[Na+].[Na+].[Na+] [PPADS, PPADS tetrasodium salt] | −5.27 ± 0.01 | – | 84.8 ± 1.6% | – | – | Counterscreen (human cells) LTR signal (% control) [2]: 92.1 ± 7%; IC50 [1]: 5.4 ± 0.2 µM; Counterscreen (human cells) Ca^2+ release (% GPN) [4]: 91.3 ± 16% |
| Cc1nc(N=Nc2cc(S(=O)(=O)O)c3cc([N+](=O)[O-])cc(S(=O)(=O)O)c3c2)c(COP(=O)(O)O)c(C=O)c1O [PPNDS] | – | 22 ± 4% | – | – | – | – |
| CN1CCN(CCCN2c3ccccc3Sc3ccc(Cl)cc32)CC1 [Prochlorperazine dimaleate, prochlorperazine dimaleate salt] | – | – | – | 24.3 ± 14% | 20.2 ± 17% | – |
| CC(=O)SCC(Cc1ccccc1)C(=O)NCC(=O)OCc1ccccc1 (stereo not drawn) [Racecadotril, racecadotril] | −5.80 ± 0.03 | 11.5 ± 6.0% | −8.3 ± 0.2% | 92.8 ± 3% | 110 ± 4% | IC50 [1]: 1.6 ± 0.1 µM; Effect on GPN-mobilizable Ca2+ and LysoTracker (LTR) staining (in words) [4]: no effect |
| COc1ccc(CCCOC(Cn2ccnc2)c2ccc(OC)cc2)cc1 (stereo not drawn) [SKF 96,365, SKF 96365 hydrochloride] | −5.29 ± 0.06 | 6.3 ± 4.5% | −5.3 ± 5.7% | 98.5 ± 5% | 98.1 ± 6% | Effect on GPN-mobilizable Ca2+ and LysoTracker (LTR) staining (in words) [4]: no effect |
| OCc1cc(C(O)CNCCCCCCOCCCCc2ccccc2)ccc1O (stereo not drawn) [Salmeterol xinafolate, salmeterol xinafoate] | −4.94 ± 0.04 | 18.7 ± 12% | −2.3 ± 13.6% | 97.3 ± 7% | 97.4 ± 5% | – |
| CCN(CC)CCCCCCCCOC(=O)c1cc(OC)c(OC)c(OC)c1.Cl [TMB-8 hydrochloride] | −5.12 ± 0.06 | 18.3 ± 3.2% | −16.6 ± 10.3% | – | – | Counterscreen (human cells) LTR signal (% control) [2]: 71.8 ± 8%; Counterscreen (human cells) Ca^2+ release (% GPN) [4]: 68.8 ± 5% |
| CSc1ccc2c(c1)N(CCC1CCCCN1C)c1ccccc1S2 (stereo not drawn) [Thioridazine hydrochloride, thioridazine hydrochloride] | – | – | – | 26.2 ± 18% | 20.5 ± 12% | – |
| CN1CCN(CCCN2c3ccccc3Sc3ccc(C(F)(F)F)cc32)CC1 [Trifluoperazine dihydrochloride, trifluoperazine dihydrochloride] | −5.13 ± 0.10 | 19.7 ± 15% | −13.7 ± 13.7% | 15.2 ± 9% | 5.8 ± 11% | – |
| CO/C1=C\C(C)=C\[C@@H](C)[C@@H](O)[C@@H](C)C/C(C)=C/C=C/[C@H](OC)[C@@H]([C@@H](C)[C@@H](O)[C@H](C)[C@@]2(O)C[C@@H](O)[C@H](C)[C@@H](C(C)C)O2)OC1=O [bafilomycin, bafilomycin A1] | – | – | – | – | – | Effect on GPN-mobilizable Ca2+ and LysoTracker (LTR) staining (in words) [4]: penetrant effects |
| COc1ccc([C@@H]2Sc3ccccc3N(CCN(C)C)C(=O)[C@@H]2OC(C)=O)cc1 [diltiazem] | – | – | – | – | – | Concentration acting as TPC pore blocker [7]: < 10 u M |
| O=C1C[C@@H](c2ccc(O)cc2)Oc2cc(O)cc(O)c21 [naringenin] | – | – | – | – | – | IC50 [7]: ~180 µM |
| COC(=O)C1=C(C)NC(C)=C(C(=O)OC)C1c1ccccc1[N+](=O)[O-] [nifedipine] | – | – | – | – | – | Concentration acting as TPC pore blocker [7]: < 10 u M |
| O=C1NC(=O)C(c2ccccc2)(c2ccccc2)N1 [phenytoin] | – | – | – | – | – | Effect on NAADP-evoked Ca2+ signal in primary screen (in words) [3]: potentiation |
| COc1ccc2cc1Oc1ccc(cc1)C[C@H]1c3cc(c(OC)cc3CCN1C)Oc1c(OC)c(OC)cc3c1[C@H](C2)N(C)CC3 [tetrandrine] | – | – | – | – | – | Concentration range acting as TPC pore blocker (in words) [7]: sub-micromolar range; Survival (Ebola): improved survival |
| C/C=C(/C)C(=O)O[C@H]1C(C)=C2[C@H]([C@@H]1OC(=O)CCCCCCC)[C@@](C)(OC(C)=O)C[C@H](OC(=O)CCC)[C@@]1(O)[C@H]2OC(=O)[C@@]1(C)O [thapsigargin] | – | – | – | – | – | Effect on NAADP-evoked Ca2+ signal in primary screen (in words) [3]: did not abrogate NAADP responsiveness |
| ST-148 | −4.80 ± 0.08 | 16.7 ± 3.5% | 0.2 ± 4.3% | – | – | Counterscreen (human cells) LTR signal (% control) [2]: 69.8 ± 13%; Counterscreen (human cells) Ca^2+ release (% GPN) [4]: 66.6 ± 5% |
